{
  "source": "ChEMBL document CHEMBL1130911",
  "about": "(Bioorg Med Chem Lett, 1998)",
  "key": {"[1]": {"target": "T1, Delta-type opioid receptor (Rattus norvegicus, UniProt P33533)", "T1 sequence (P33533 whole entry)": "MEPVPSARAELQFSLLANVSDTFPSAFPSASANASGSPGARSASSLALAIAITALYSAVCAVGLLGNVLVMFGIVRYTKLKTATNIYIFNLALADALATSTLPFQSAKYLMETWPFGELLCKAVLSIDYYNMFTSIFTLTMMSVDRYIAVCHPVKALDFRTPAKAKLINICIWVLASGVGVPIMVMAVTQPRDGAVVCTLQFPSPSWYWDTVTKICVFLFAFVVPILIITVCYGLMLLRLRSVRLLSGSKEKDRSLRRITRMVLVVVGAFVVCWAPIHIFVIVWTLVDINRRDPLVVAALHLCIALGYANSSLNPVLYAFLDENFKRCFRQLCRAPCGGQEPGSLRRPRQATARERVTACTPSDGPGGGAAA", "assay": "biochemical", "type": "cell-based, CHO", "description": "Binding affinity against rat Opioid receptor delta 1 expressed in CHO cells determined by competitive inhibition of 1 nM [3H]DPDPE."}, "[2]": {"target": "Kappa-type opioid receptor (Rattus norvegicus, UniProt P34975)", "sequence (P34975 whole entry)": "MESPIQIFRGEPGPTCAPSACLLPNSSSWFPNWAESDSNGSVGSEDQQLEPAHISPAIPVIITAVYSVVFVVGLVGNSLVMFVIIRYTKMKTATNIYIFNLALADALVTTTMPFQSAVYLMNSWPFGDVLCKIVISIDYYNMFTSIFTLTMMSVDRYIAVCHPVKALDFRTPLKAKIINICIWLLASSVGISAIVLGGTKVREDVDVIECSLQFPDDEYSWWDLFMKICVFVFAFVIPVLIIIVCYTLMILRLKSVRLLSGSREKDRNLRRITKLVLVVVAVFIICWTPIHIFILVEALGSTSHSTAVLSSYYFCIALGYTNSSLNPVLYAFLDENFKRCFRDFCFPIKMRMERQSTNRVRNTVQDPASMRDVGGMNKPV", "assay": "biochemical", "type": "cell-based, CHO"}, "Mu-type opioid receptor": {"target": "Mu-type opioid receptor (Rattus norvegicus, UniProt P33535)", "sequence (P33535 whole entry)": "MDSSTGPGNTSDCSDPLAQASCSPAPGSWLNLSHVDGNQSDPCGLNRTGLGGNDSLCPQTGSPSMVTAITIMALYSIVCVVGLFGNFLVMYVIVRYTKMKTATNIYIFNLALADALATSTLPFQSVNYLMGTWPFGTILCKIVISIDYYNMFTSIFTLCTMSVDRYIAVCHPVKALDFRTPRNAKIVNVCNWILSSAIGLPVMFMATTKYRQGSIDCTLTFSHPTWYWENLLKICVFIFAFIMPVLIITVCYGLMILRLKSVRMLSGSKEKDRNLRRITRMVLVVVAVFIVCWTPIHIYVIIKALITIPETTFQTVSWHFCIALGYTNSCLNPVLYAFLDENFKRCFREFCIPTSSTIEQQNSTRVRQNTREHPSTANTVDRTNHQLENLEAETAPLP", "assay": "biochemical", "type": "cell-based, CHO"}, "[3]": {"target": "T1, Delta-type opioid receptor", "assay": "Inhibitory activity against forskolin-stimulated cAMP production in chinese hamster ovary cells expressing Opioid receptor delta 1", "type": "functional, cell-based, CHO"}},
  "note": "Starred links: 1 amine or outer side, 2 acyl side, 3 side chain; linkers in the order of their positions; H or OH if unused. Non-standard residues stand in square brackets, D forms with d. Residues, ends and D or L forms follow the SMILES beside them. X1 = O=C([C@@]1(N[*:1])CCCC[C@@H]1O)[*:2]; X2 = O=C([C@@]1(N[*:1])CCCC[C@H]1O)[*:2]; X3 = O=C([C@@]1(N[*:1])CCC[C@@H]1O)[*:2]; X4 = O=C([C@]1(N[*:1])CCC[C@H]1O)[*:2]",
  "data": [
    {"smiles": "CC(C)C[C@@H](NC(=O)[C@@H](Cc1ccccc1)NC(=O)CNC(=O)[C@@](C)(CO)NC(=O)[C@H](N)Cc1ccc(O)cc1)C(=O)O", "values": [
      {"measurement": "IC50", "setting": "[1]; cho", "value": 0.4, "unit": "nM"},
      {"measurement": "IC50", "setting": "[2]; cho", "value": "> 10000", "unit": "nM"},
      {"measurement": "IC50", "setting": "Mu-type opioid receptor; cho", "value": 6.3, "unit": "nM"},
      {"measurement": "IC50", "setting": "[3]; cho", "value": 0.071, "unit": "nM"}
    ]},
    {"smiles": "CC(C)C[C@@H](NC(=O)[C@@H](Cc1ccccc1)NC(=O)CNC(=O)[C@](C)(CO)NC(=O)[C@H](N)Cc1ccc(O)cc1)C(=O)O", "values": [
      {"measurement": "IC50", "setting": "[1]; cho", "value": 2500, "unit": "nM"},
      {"measurement": "IC50", "setting": "[2]; cho", "value": "> 10000", "unit": "nM"},
      {"measurement": "IC50", "setting": "Mu-type opioid receptor; cho", "value": "> 10000", "unit": "nM"},
      {"measurement": "IC50", "setting": "[3]; cho", "value": 5000, "unit": "nM"}
    ]},
    {"smiles": "CC(C)C[C@H](NC(=O)[C@H](Cc1ccccc1)NC(=O)CNC(=O)[C@@]1(NC(=O)[C@@H](N)Cc2ccc(O)cc2)CCCC[C@@H]1O)C(=O)O", "note": "(H-Y[X1]GFL-OH)", "values": [
      {"measurement": "IC50", "setting": "[1]", "value": 0.01, "unit": "nM"},
      {"measurement": "IC50", "setting": "[2]", "value": 6310, "unit": "nM"},
      {"measurement": "IC50", "setting": "Mu-type opioid receptor", "value": 0.25, "unit": "nM"},
      {"measurement": "IC50", "setting": "[3]", "value": 0.005, "unit": "nM"}
    ]},
    {"smiles": "CC(C)C[C@H](NC(=O)[C@H](Cc1ccccc1)NC(=O)CNC(=O)[C@@]1(NC(=O)[C@@H](N)Cc2ccc(O)cc2)CCCC[C@H]1O)C(=O)O", "note": "(H-Y[X2]GFL-OH)", "values": [
      {"measurement": "IC50", "setting": "[1]", "value": 1, "unit": "nM"},
      {"measurement": "IC50", "setting": "[2]", "value": "> 10000", "unit": "nM"},
      {"measurement": "IC50", "setting": "Mu-type opioid receptor", "value": 50, "unit": "nM"},
      {"measurement": "IC50", "setting": "[3]", "value": 2, "unit": "nM"}
    ]},
    {"smiles": "CC(C)C[C@H](NC(=O)[C@H](Cc1ccccc1)NC(=O)CNC(=O)[C@@]1(NC(=O)[C@@H](N)Cc2ccc(O)cc2)CCC[C@@H]1O)C(=O)O", "note": "(H-Y[X3]GFL-OH)", "values": [
      {"measurement": "IC50", "setting": "[1]", "value": 0.04, "unit": "nM"},
      {"measurement": "IC50", "setting": "[2]", "value": "> 10000", "unit": "nM"},
      {"measurement": "IC50", "setting": "Mu-type opioid receptor", "value": 2.5, "unit": "nM"},
      {"measurement": "IC50", "setting": "[3]", "value": 0.01, "unit": "nM"}
    ]},
    {"smiles": "CC(C)C[C@H](NC(=O)[C@H](Cc1ccccc1)NC(=O)CNC(=O)[C@]1(NC(=O)[C@@H](N)Cc2ccc(O)cc2)CCC[C@H]1O)C(=O)O", "note": "(H-Y[X4]GFL-OH)", "values": [
      {"measurement": "IC50", "setting": "[2]", "value": "> 10000", "unit": "nM"},
      {"measurement": "IC50", "setting": "Mu-type opioid receptor", "value": 320, "unit": "nM"},
      {"measurement": "IC50", "setting": "[3]", "value": 10, "unit": "nM"}
    ]},
    {"smiles": "CC(C)C[C@H](NC(=O)[C@H](Cc1ccccc1)NC(=O)CNC(=O)C(C)(C)NC(=O)[C@@H](N)Cc1ccc(O)cc1)C(=O)O", "note": "(single isomer, unassigned)", "values": [
      {"measurement": "IC50", "setting": "[1]", "value": 50, "unit": "nM"},
      {"measurement": "IC50", "setting": "[2]", "value": "> 10000", "unit": "nM"},
      {"measurement": "IC50", "setting": "Mu-type opioid receptor", "value": 158, "unit": "nM"},
      {"measurement": "IC50", "setting": "[3]", "value": 140, "unit": "nM"}
    ]}
  ]
}
